Holding throughout (type): biochemical
The target in test [1] is T1, Horse liver alcohol dehydrogenase (ADH), E isoenzyme (Equus caballus, UniProt P00327, V208A). Kind of test: product inhibition against NAD+.
The target of test [2] is T2, Horse liver alcohol dehydrogenase (ADH), E isoenzyme (Equus caballus, UniProt P00327). Kind of test: product inhibition against NAD+.
Test [3] addresses T2, Horse liver alcohol dehydrogenase (ADH), E isoenzyme. Kind of test: initial velocity and product inhibition kinetics.
Test [4] has as its target T1, Horse liver alcohol dehydrogenase (ADH), E isoenzyme. Kind of test: X-ray crystal structure, […] Å.

T2 sequence (P00327 2-375): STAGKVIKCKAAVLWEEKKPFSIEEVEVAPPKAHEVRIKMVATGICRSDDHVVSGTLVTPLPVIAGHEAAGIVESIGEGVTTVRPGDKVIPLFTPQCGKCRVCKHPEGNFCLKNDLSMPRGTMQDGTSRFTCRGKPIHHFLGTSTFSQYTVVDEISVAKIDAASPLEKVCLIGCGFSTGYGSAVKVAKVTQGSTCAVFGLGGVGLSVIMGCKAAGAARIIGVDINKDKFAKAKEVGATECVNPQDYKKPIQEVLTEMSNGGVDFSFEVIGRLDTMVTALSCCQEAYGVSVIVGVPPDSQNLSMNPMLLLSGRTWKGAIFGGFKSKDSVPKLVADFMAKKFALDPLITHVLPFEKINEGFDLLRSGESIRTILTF
T1 sequence (P00327 2-375 V208A): as the sequence (P00327 2-375) above, with V207A counted along it

For the compound `NC(=O)C1=CN([C@@H]2O[C@H](COP(=O)(O)OP(=O)(O)OC[C@H]3O[C@@H](n4cnc5c(N)ncnc54)[C@H](O)[C@@H]3O)[C@@H](O)[C@H]2O)C=CC1` [NADH], the values for the Ki in test [1] and in test [2] were 0.39 ± 0.01 µM and 0.31 ± 0.02 µM, respectively.

As to `NC(=O)c1ccc[n+]([C@@H]2O[C@H](COP(=O)([O-])OP(=O)(O)OC[C@H]3O[C@@H](n4cnc5c(N)ncnc54)[C@H](O)[C@@H]3O)[C@@H](O)[C@H]2O)c1` [NAD^+], the values for the Ki in test [3] and in test [4] were 20 ± 5 µM and 59 ± 5 µM, respectively.
